According to the supplement of paper PMC10331698:
± gives the standard deviation of the averaged measurements.

Assays:
Experiment in all cases: level (log10 ratio to DMSO vehicle control); higher = higher biomarker level / cell amount than vehicle control
[1] = compound: OCC(F)(F)C(F)(F)C(F)(F)C(F)(F)C(F)(F)C(F)(F)CO [1H,1H,8H,8H-Perfluorooctane-1,8-diol] (in DMSO)
Experimental: (§1)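 BioMAP Diversity Plus panel of 12 human primary cell co-culture systems (3C, 4H, LPS, SAg, BT, BF4T, BE3C, CASM3C, HDF3CGF, KF3CT, MyoF, Mphg). Compounds were added 1 h before stimulation and left for 24 h (MyoF 48 h; BT 72 h for soluble read-outs or 6 d for IgG). Biomarkers were read by ELISA, cytotoxicity by SRB, PBMC viability and proliferation by Alamar Blue. Each well value was divided by the mean of 8 DMSO control wells on the same plate and log10 transformed; duplicate blinded samples were tested at 4 concentrations.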

[2] = compound: C=C(C)C(=O)OCCC(F)(F)C(F)(F)C(F)(F)C(F)(F)C(F)(F)C(F)(F)C(F)(F)C(F)(F)F [8:2 Fluorotelomer methacrylate] (in DMSO)
Experimental: as §1

[3] = compound: NS(=O)(=O)C(F)(F)C(F)(F)C(F)(F)C(F)(F)C(F)(F)C(F)(F)C(F)(F)C(F)(F)F [Perfluorooctanesulfonamide] (in DMSO)
Experimental: as §1

[4] = compound: O=C(O)C(F)(OC(F)(F)C(F)(OC(F)(F)C(F)(OC(F)(F)C(F)(F)C(F)(F)F)C(F)(F)F)C(F)(F)F)C(F)(F)F [Perfluoro-(2,5,8-trimethyl-3,6,9-trioxadodecanoic)acid] (in DMSO)
Experimental: as §1

[5] = compound: O=C(O)C(F)(F)C(F)(F)C(F)(F)OC(F)(F)F [Perfluoro(4-methoxybutanoic) acid] (in DMSO)
Experimental: as §1

[6] = compound: OCC(F)(F)C(F)(F)C(F)(F)C(F)F [1H,1H,5H-Perfluoropentanol] (in DMSO)
Experimental: as §1

[7] = compound: O=C(O)C(F)(F)C(F)(F)C(F)(F)C(F)(F)C(F)(F)C(F)(F)C(F)(F)C(F)(F)F [Perfluorononanoic acid] (in DMSO)
Experimental: as §1

[8] = compound: O=C(O)C(F)(F)OC(F)(F)C(F)(F)OC(F)(F)C(F)(F)OC(F)(F)C(F)(F)C(F)(F)C(F)(F)F [Perfluoro-3,6,9-trioxatridecanoic acid] (in DMSO); details: 6700 nM
Experimental: as §1

| Test System | level (log10) ([1]; 6700 nM) | level (log10) ([1]; 20000 nM) | level (log10) ([1]; 60000 nM) | level (log10) ([2]; 6700 nM) | level (log10) ([2]; 20000 nM) | level (log10) ([3]; 6700 nM) | level (log10) ([3]; 20000 nM) | level (log10) ([4]; 1100 nM) | level (log10) ([4]; 3300 nM) | level (log10) ([4]; 10000 nM) | level (log10) ([5]; 6700 nM) | level (log10) ([5]; 20000 nM) | level (log10) ([5]; 60000 nM) | level (log10) ([6]; 6700 nM) | level (log10) ([6]; 20000 nM) | level (log10) ([6]; 60000 nM) | level (log10) ([7]; 6700 nM) | level (log10) ([7]; 20000 nM) | level (log10) [8] |
| --- | --- | --- | --- | --- | --- | --- | --- | --- | --- | --- | --- | --- | --- | --- | --- | --- | --- | --- | --- |
| HDF3CGF:SRB | -0.043 ± 0.052 | -0.0135 ± 0.056 | -0.0405 ± 0.1 | -0.021 ± 0.055 | -0.0015 ± 0.046 | -0.028 ± 0.055 | 0.0615 ± 0.019 | -0.009 ± 0.023 | 0.0075 ± 0.011 | 0.027 ± 0.0071 | 0.006 ± 0.0071 | 0.011 ± 0.047 | 0.0125 ± 0.04 | -0.0275 ± 0.0064 | -0.0025 ± 0.03 | -0.0015 ± 0.037 | 0.014 ± 0.0014 | -0.0155 ± 0.026 | -0.107 ± 0.0021 |
| HDF3CGF:TIMP-1 | -0.002 ± 0.0071 | -0.003 ± 0.0085 | 0.019 ± 0.025 | -0.0115 ± 0.036 | -0.0375 ± 0.074 | 0.065 ± 0.068 | -0.138 ± 0.15 | -0.0095 ± 0.04 | 0.003 ± 0.03 | 0.0065 ± 0.011 | -0.0005 ± 0.035 | 0.0105 ± 0.067 | 0.0195 ± 0.042 | -0.012 ± 0.031 | -0.0155 ± 0.025 | 0.006 ± 0.027 | -0.0225 ± 0.026 | -0.039 ± 0.03 | -0.109 ± 0.088 |
| HDF3CGF:TIMP-2 | 0.003 ± 0.0014 | 0.0255 ± 0.0035 | 0.0145 ± 0.00071 | -0.001 ± 0.013 | -0.0395 ± 0.012 | -0.0545 ± 0.0021 | -0.102 ± 0.044 | 0.011 ± 0.0042 | -0.0035 ± 0.0064 | -0.013 ± 0.047 | 0.019 ± 0.025 | 0.029 ± 0.055 | 0.005 ± 0.057 | -0.0525 ± 0.086 | -0.0265 ± 0.067 | -0.0175 ± 0.087 | 0.0105 ± 0.033 | 0.0805 ± 0.026 | -0.291 ± 0.005 |
| KF3CT:CCL2/MCP-1 | -0.017 ± 0.0099 | -0.0235 ± 0.03 | 0.0005 ± 0.081 | -0.0235 ± 0.00071 | -0.008 ± 0.033 | 0.025 ± 0.016 | 0.116 ± 0.037 | -0.017 ± 0.0099 | -0.049 ± 0.025 | 0.011 ± 0.0099 | -0.006 ± 0.011 | 0.0105 ± 0.0021 | 0.0375 ± 0.07 | 0.0055 ± 0.026 | -0.0495 ± 0.087 | 0.007 ± 0.13 | -0.0975 ± 0.012 | -0.157 ± 0.03 | -0.295 ± 0.023 |
| KF3CT:CD54/ICAM-1 | -0.009 ± 0.0042 | 0.0015 ± 0.0092 | -0.01 ± 0.018 | -0.017 ± 0.013 | 0.004 ± 0.021 | 0.0155 ± 0.023 | -0.0235 ± 0.028 | 0.004 ± 0.0042 | -0.0025 ± 0.0064 | 0.013 ± 0.013 | -0.005 ± 0.024 | -0.017 | -0.002 ± 0.013 | -0.002 ± 0.0071 | -0.003 ± 0.023 | 0.004 | -0.0235 ± 0.013 | -0.0455 ± 0.037 | 0.019 ± 0.0042 |
| KF3CT:CXCL8/IL-8 | -0.0015 ± 0.019 | -0.0215 ± 0.023 | 0 | -0.013 ± 0.0071 | -0.0275 ± 0.015 | -0.0135 ± 0.021 | -0.0525 ± 0.018 | -0.004 ± 0.0099 | -0.01 ± 0.035 | 0.0175 ± 0.056 | 0.006 ± 0.017 | 0.012 ± 0.0085 | 0.014 ± 0.0099 | 0.0155 ± 0.016 | 0.0205 ± 0.021 | 0.0415 ± 0.049 | -0.0045 ± 0.016 | 0.013 ± 0.028 | -0.047 ± 0.0042 |
| KF3CT:CXCL9/MIG | 0.007 ± 0.011 | 0.0025 ± 0.00071 | 0.0105 ± 0.005 | -0.0035 ± 0.0092 | 0.004 ± 0.0014 | 0.0075 ± 0.0035 | -0.032 ± 0.034 | 0.0045 ± 0.012 | -0.002 ± 0.0085 | 0.0045 ± 0.0021 | 0.0195 ± 0.0021 | 0.0075 ± 0.0092 | 0.016 ± 0.018 | -0.009 ± 0.0085 | -0.006 ± 0.017 | 0.008 ± 0.023 | -0.006 ± 0.027 | -0.007 ± 0.0042 | -0.0395 ± 0.042 |
| KF3CT:CXCL10/IP-10 | -0.003 ± 0.0028 | -0.001 ± 0.014 | -0.009 ± 0.0085 | -0.0125 ± 0.0035 | -0.011 ± 0.0028 | -0.021 ± 0.0028 | -0.205 ± 0.0092 | -0.0005 ± 0.0021 | 0.0035 ± 0.0078 | 0.0025 ± 0.011 | 0.002 ± 0.011 | -0.0025 ± 0.0035 | 0.006 ± 0.0099 | -0.0125 ± 0.033 | 0.0025 ± 0.00071 | 0.0365 ± 0.00071 | -0.016 ± 0.018 | -0.0085 ± 0.021 | -0.282 ± 0.12 |
| KF3CT:IL-1alpha | -0.0085 ± 0.022 | -0.0095 ± 0.0064 | 0.0225 ± 0.057 | -0.0145 ± 0.036 | -0.028 ± 0.031 | 0.074 ± 0.0042 | -0.056 ± 0.02 | -0.0015 ± 0.005 | -0.0195 ± 0.012 | 0.006 ± 0.0028 | -0.003 ± 0.0099 | -0.015 ± 0.027 | 0 ± 0.021 | -0.0465 ± 0.05 | -0.0475 ± 0.056 | 0.0535 ± 0.025 | -0.0365 ± 0.053 | -0.105 ± 0.043 | -0.041 ± 0.03 |
| KF3CT:MMP-9 | -0.003 ± 0.0028 | 0.009 ± 0.0014 | 0.058 ± 0.0099 | -0.003 ± 0.023 | -0.014 ± 0.018 | 0.0365 ± 0.026 | -0.274 ± 0.023 | -0.0035 ± 0.00071 | -0.022 ± 0.044 | -0.0125 ± 0.016 | 0.001 ± 0.0057 | 0.0055 ± 0.0092 | 0.0205 ± 0.013 | -0.024 ± 0.045 | -0.008 ± 0.0071 | 0.0125 ± 0.04 | -0.0575 ± 0.053 | -0.097 ± 0.034 | -0.278 ± 0.039 |
| KF3CT:PAI-I | -0.004 ± 0.0085 | -0.008 ± 0.0071 | -0.0155 ± 0.0021 | -0.022 ± 0.037 | -0.015 ± 0.013 | 0.03 ± 0.027 | -0.108 ± 0.054 | -0.0025 ± 0.0035 | -0.018 ± 0.0071 | 0.006 ± 0.0099 | -0.0015 ± 0.005 | -0.0115 ± 0.011 | -0.004 ± 0.018 | 0.0105 ± 0.098 | 0.062 ± 0.035 | -0.0045 ± 0.011 | 0.065 ± 0.011 | -0.0095 ± 0.032 | -0.126 |
| KF3CT:SRB | -0.003 | -0.004 ± 0.0085 | -0.0085 ± 0.0092 | -0.003 | 0.004 ± 0.0042 | -0.0035 ± 0.015 | -0.0455 ± 0.029 | 0.0005 ± 0.011 | 0.0025 ± 0.016 | -0.008 ± 0.0014 | -0.004 ± 0.0014 | 0.0015 ± 0.0021 | -0.0015 ± 0.0064 | 0.003 ± 0.0028 | 0.0025 ± 0.0035 | 0.0025 ± 0.0035 | -0.011 ± 0.0057 | -0.0215 ± 0.0021 | -0.0355 ± 0.0035 |
| KF3CT:TIMP-2 | 0.0065 ± 0.042 | -0.0055 ± 0.018 | -0.006 ± 0.016 | -0.018 ± 0.014 | -0.0335 ± 0.033 | -0.0275 ± 0.012 | -0.06 ± 0.021 | -0.0075 ± 0.013 | -0.0105 ± 0.011 | -0.001 ± 0.017 | -0.0015 ± 0.005 | 0.007 ± 0.0042 | 0.008 ± 0.0071 | -0.018 ± 0.013 | 0.025 ± 0.045 | 0.0285 ± 0.029 | -0.074 ± 0.027 | -0.002 ± 0.045 | -0.172 ± 0.037 |
| KF3CT:uPA | 0.0085 ± 0.0078 | -0.017 ± 0.02 | -0.0115 ± 0.011 | -0.0095 ± 0.00071 | -0.0205 ± 0.012 | 0.0165 ± 0.0064 | -0.093 ± 0.0014 | 0.01 | 0.0045 ± 0.021 | 0.0075 ± 0.005 | -0.0065 ± 0.005 | -0.0175 ± 0.019 | -0.0055 ± 0.011 | 0.0035 ± 0.0092 | -0.0315 ± 0.03 | 0.0375 ± 0.005 | 0.0005 ± 0.018 | 0.009 ± 0.011 | 0.027 ± 0.0057 |
